The source made the active and inactive calls.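 Rule for the calls: active = compounds giving half or more protection of infected cells from virus-caused growth loss, again on retest; inactive = the rest.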 A value given as a limit tells only on which side of the number the result lay.

The assay concerns CEM cells HIV-1 protection, formazan growth assay. The experiment in a line: NCI AIDS Antiviral Assay. The following applies: for IC50: measured here: growth of uninfected CEM cells. Summed up:
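Protection of CEM cells against HIV-1 was scored from cell growth (soluble formazan) across five concentrations, with parallel uninfected cells. Lack of protection may reflect toxicity.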

On to `O=[N+]([O-])c1cc(S(=O)(=O)c2ccc(N(CCO)CCO)c([N+](=O)[O-])c2)ccc1N(CCO)CCO`, for which the EC50 (usually the concentration at which the effect is half-maximal) was more than 200 µM and the half-maximal inhibitory concentration (IC50) (commonly the concentration that inhibits the measured activity by half) was 35.5 µM. As for `N#C/C(=C\NC(=S)N=Nc1c(O)[nH]c2ccccc12)c1nc2ccccc2s1`, the EC50 is more than 200 µM and the IC50 was more than 200 µM. Turning to `CCOC(=O)NC(C(F)(F)F)(C(F)(F)F)P(=O)(OCC(C)C)OCC(C)C`, the EC50 is more than 200 µM and the IC50 turned out to be 5.37 µM. Turning to `CC1(C)O[C@@H]2[C@@H](COC(=O)c3ccccc3)C[C@@H](C#N)[C@@H]2O1`, the EC50 was more than 200 µM and the IC50 was more than 200 µM. With `CN(C)C1=NC(=O)C(c2ccccc2)O1` (configuration not stated), the EC50 was more than 200 µM and the IC50 is more than 200 µM.

`CSc1s[s+]c(SC)c1-c1ccccc1`: the EC50 was 14.8 µM and the IC50 is 16.2 µM. Take `Cc1cc(NS(=O)(=O)c2ccc(Nc3c4ccccc4nc4c(C(=O)N5CCN(CCO)CC5)ccc(Cl)c34)cc2)no1`: the EC50 is more than 47.9 µM and the half-inhibitory concentration (IC50) is more than 47.9 µM. For `COc1ccc(N=C/C=C/C(=C/COC(C)=O)OC(C)=O)cc1`, the EC50 is more than 200 µM and the IC50 is 11.5 µM. `COC(=O)c1sc(=O)n(-c2ccccc2)c1SCc1ccccc1`: the EC50 was more than 38 µM and the IC50 was more than 38 µM. As for `CC1C=CN(N(C)C)C2=C1C(=O)c1cnccc1C2=O` (configuration not stated), the EC50 was more than 20 µM and the IC50 was 1.23 µM. Regarding `COC(=O)c1cccc(COC(=O)c2cc(C(=CCC[C@H]3CC[C@@]4(C)[C@@H](CC[C@@H]5[C@@H]4CC[C@]4(C)[C@@H]([C@H](C)CCCC(C)C)CC[C@@H]54)C3)c3cc(Cl)c(OCc4cccc(C(=O)OC)c4)c(C(=O)OCc4cccc(C(=O)OC)c4)c3)cc(Cl)c2OCc2cccc(C(=O)OC)c2)c1`, the EC50 was more than 200 µM and the IC50 was more than 200 µM.

Take `NCCNCc1c2ccccc2c(CNCCN)c2ccccc12`: the EC50 is more than 95.5 µM and the IC50 is 7.94 µM.

As for `N=C(N)C1CN(CCc2cnc[nH]2)C(=O)NC1=O` (configuration not stated), the EC50 was more than 200 µM and the IC50 is more than 200 µM. In the case of `COC(=O)C1=C(C(=O)OC)P2(C)(C)OC(c3ccccc3)CN2C1(c1ccccc1)c1ccccc1` (configuration not stated), the EC50 is more than 36.3 µM and the half-inhibitory concentration (IC50) is 4.79 µM. As to `O=[N+]([O-])c1ccc(Cl)cc1N/N=C/c1cccc2cccnc12`, the EC50 is more than 200 µM and the IC50 is more than 200 µM. Turning to `CC1=CC2O[C@@H]3C[C@@H](O)[C@](C)(C2(C)CC1=O)C31CO1` (some centres not stated), the EC50 is more than 200 µM and the IC50 was 3.72 µM. Consider `COC(=O)C(C(=O)C(=O)Nc1ccc(OC)cc1[N+](=O)[O-])c1nc2cc(C)c(C)cc2[nH]c1=O` (configuration not stated), for which the EC50 was more than 15.5 µM and the IC50 was more than 15.5 µM. As to `Cc1ccc2c(c1)N=Cc1ccccc1O2`, the EC50 was more than 174 µM and the IC50 came out at 10.7 µM. `CN(Cc1cnc2nc(N)nc(N)c2n1)c1ccc(C(=O)NC(CCC(=O)NCCC(P(=O)(O)O)P(=O)(O)O)C(=O)O)cc1` (configuration not stated): the EC50 was more than 200 µM and the half-maximal inhibitory concentration (IC50) worked out at 3.63 µM. Consider `CCO[Si](C)(OCC)OCC`, for which the EC50 was more than 200 µM and the IC50 is more than 200 µM.

Turning to `O=C1C(=Cc2ccc(O)cc2)N=C(c2ccccc2)N1n1c(-c2ccccc2)nc2ccccc2c1=O`, the EC50 was more than 200 µM and the IC50 turned out to be 77.6 µM. In the case of `CC(C)(C)[Si](C)(C)OC1(CCc2ccccc2OS(=O)(=O)C(F)(F)F)CCCC=C1COCc1ccccc1` (configuration not stated), the EC50 is more than 200 µM and the IC50 was found to be 39.8 µM.

For `CCCC(=O)c1c(NOC2OCC(OC(C)=O)C(OC(C)=O)C2OC(C)=O)nc(OC)n(C)c1=O` (configuration not stated), the EC50 is more than 14.5 µM and the IC50 is more than 14.5 µM. In the case of `CN(C)CCSc1cccc(-c2cc(-c3cccc(SCCN(C)C)c3)nc(SCCN(C)C)n2)c1`, the EC50 is more than 457 µM and the IC50 was determined as 0.708 µM. On to `Cc1cn(C2C=CCCC2O)c(=O)[nH]c1=O` (configuration not stated), for which the EC50 was more than 200 µM and the concentration for half-maximal inhibition (IC50) is more than 200 µM.

For the molecule `CCCN1CN(C(C(=O)N[C@@H]2C(=O)N3C2SC(C)(C)C3C(=O)O)c2ccccc2)CSC1=S` (some centres not stated), the EC50 is more than 257 µM and the IC50 amounted to 148 µM.

Consider `Nc1ncnc2c1Sc1nc(Cl)ccc1N2`, for which the EC50 was more than 14.8 µM and the IC50 is more than 14.8 µM. As to `O=C(NCCCl)Nc1ccccn1`, the EC50 was more than 200 µM and the IC50 is more than 200 µM. `CCCCC1=NNC(=O)C1`: the EC50 is more than 200 µM and the IC50 was more than 200 µM. On to `O=C(O)CCCC[n+]1ccccc1`, for which the EC50 was more than 200 µM and the IC50 is more than 200 µM. `O=C1Nc2ncnn2C1=O`: the EC50 was more than 52.5 µM and the IC50 was more than 52.5 µM. Consider `N#C/C(=C/N1C(=O)/C(=C/c2ccc([N+](=O)[O-])cc2)SC1=S)c1nc2ccccc2s1`, for which the EC50 is more than 200 µM and the IC50 is 15.5 µM. As to `O=C1CC(O)CC(=O)C1=C(O)CCCCCCCCCCc1ccccc1` (configuration not stated), the EC50 was more than 19.5 µM and the IC50 is more than 19.5 µM. With `C=CCCCCCCCCC/C=C1\C[C@H](O)COC1=O`, the EC50 is more than 93.3 µM and the IC50 was more than 93.3 µM. Consider `CNC(=O)CCNC(=O)CCC(=O)N(C)C`, for which the EC50 was more than 200 µM and the IC50 is more than 200 µM. With `COc1cc(CCCl)c(CC2=NCCc3cc(OC)c(OC)cc32)cc1OC`, the EC50 is more than 200 µM and the IC50 was determined as 31.6 µM. Take `O=C1CCCC2=C1CC1=C(CCCC1=O)N2c1ccc([N+](=O)[O-])cc1`: the EC50 is more than 200 µM and the IC50 was more than 200 µM. As for `O=C1CSC2=NC3=C(COC/C3=C\c3ccc(Br)cc3)C(c3ccc(Br)cc3)N12` (configuration not stated), the result was inactive. As to `C=CCON(C(=O)OC(C)(C)C)C(C)(C)C`, the EC50 is more than 200 µM and the IC50 was more than 200 µM.

Take `CN(C)c1ccc(-c2ccc(N(C)C)c3n[se]nc23)c2n[se]nc12`: the EC50 was more than 200 µM and the half-inhibitory concentration (IC50) was more than 200 µM. For `Cc1nc(N)nc(N)c1N1CCN(c2ccc(N)cc2)CC1`, the EC50 is more than 200 µM and the IC50 turned out to be 2.82 µM.

As to `Cc1ccc(S(=O)(=O)N/N=C2/C3C(CC2(C)C)C2(C)CCCC3(C)C2O)cc1` (configuration not stated), the EC50 is more than 200 µM and the IC50 is more than 200 µM.

As for `NC(=O)N/N=C/C(/C=N/NC(N)=O)[N+](=O)[O-]`, the EC50 was more than 112 µM and the half-inhibitory concentration (IC50) was more than 112 µM. With `CCOC(OCC)c1ccc(N(C)C)cc1.[C-]#[O+].[C-]#[O+].[C-]#[O+].[Cr]`, the EC50 was more than 20 µM and the half-inhibitory concentration (IC50) was 3.39 µM. On to `COc1ccc(-c2nc3c(=O)n(C)c(=O)nc-3n(C)n2)cc1OC`, for which the EC50 was more than 20 µM and the IC50 was determined as 0.447 µM. In the case of `COc1ccc(/C=C2/CCS(=O)(=O)c3ccc(C)cc3C2=O)cc1OC`, the EC50 was more than 200 µM and the half-maximal inhibitory concentration (IC50) was determined as 6.03 µM.

For the molecule `COc1cc(C(=O)CC2(O)C(=O)Nc3c(Cl)cc(Cl)cc32)ccc1O` (configuration not stated), the EC50 was more than 468 µM and the IC50 was 91.2 µM. In the same order, the values of `COC(=O)C1CC23CC1(OC(C)=O)CCC2c1ccc(OC)cc1C3=O` (configuration not stated) are more than 61.7 µM and more than 61.7 µM. Regarding `Cc1nc2ccccc2c(=O)n1NC(=O)c1ccc(CS)cc1`, the outcome was inactive. On to `NC(CSS(=O)(=O)c1ccccc1)C(=O)O` (configuration not stated), for which the EC50 was more than 200 µM and the half-maximal inhibitory concentration (IC50) is more than 200 µM.

For the molecule `O=C(Nc1nc2ccccc2n1Cc1ccccc1)NC12CC3CC(CC(C3)C1)C2`, the EC50 was more than 200 µM and the IC50 is more than 200 µM. Turning to `CN(C)CCSc1nccc(-c2cc3ccccc3s2)n1`, the EC50 was more than 417 µM and the IC50 was 11.5 µM.

On to `BrC1(c2ccccc2)C[n+]2c(-c3ccccc3)cc(-c3ccccc3)cc2-c2ccccc21` (configuration not stated), for which the EC50 is more than 200 µM and the IC50 worked out at 0.741 µM.

With `O=C(/C=C/c1c(O)ccc2ccccc12)c1ccc([N+](=O)[O-])cc1`, the EC50 is 33.9 µM and the IC50 came out at 58.9 µM. For `O=c1c2cccc3cccc(c4n1CCN=4)c32`, the EC50 was more than 200 µM and the IC50 was determined as 20.9 µM.

Consider `Clc1cc2cc3c(Br)coc3nc2cc1Cl`, for which the EC50 was more than 16.2 µM and the IC50 was more than 16.2 µM.

Regarding `Cc1ccc(SSCCCCS(=O)O)cc1`, the outcome was inactive.

`N#CC1=C(N)C(C#N)(C#N)C2(CCCC2)C2CCC=C12` (configuration not stated): the outcome was inactive. As for `CN(C)c1ccc(/C=C2\C=Cc3ccccc32)cc1`, the result was inactive. `O=[N+]([O-])c1ccc(/C(Cl)=C/c2ccc(/C=C(\Cl)c3ccc([N+](=O)[O-])cc3[N+](=O)[O-])cc2)c([N+](=O)[O-])c1`: the EC50 was more than 1.41 µM and the half-inhibitory concentration (IC50) is more than 1.41 µM.

For `COc1cc(/C=C2/SC(c3ccccc3)N(c3ccccc3)C2=O)cc(OC)c1OC` (configuration not stated), the EC50 was more than 20 µM and the half-maximal inhibitory concentration (IC50) is 4.47 µM.

Turning to `CC1(CO)C(O)CCC2(C)C1C(O)CC1CC3CC12CCC3(O)CO` (configuration not stated), the EC50 is more than 708 µM and the IC50 is 138 µM. In the same order, the values of `CC(=O)c1ccc2c(c1)CC1(C2)Cc2ccccc2C1=O` (configuration not stated) are more than 200 µM and 74.1 µM. In the same order, the values of `Cc1cc(N=Nc2ccc(NC(=O)c3ccc(N)cc3)cc2C)ccc1N=Nc1ccc2c(O)c(N=Nc3ccc(S(=O)(=O)O)cc3)c(S(=O)(=O)O)cc2c1` are 15.1 µM and 105 µM. In the same order, the values of `CN(C)c1ccc(/C=C/c2ccc3ccccc3[n+]2C)cc1` are 0.0631 µM and 0.398 µM. Regarding `CCOC(=O)NC1CN2CCC1CC2` (configuration not stated), the EC50 is more than 200 µM and the IC50 is more than 200 µM. For the molecule `O=C(O)C1[C@@H](C(=O)O)C1(Br)CBr` (some centres not stated), the EC50 was more than 200 µM and the half-maximal inhibitory concentration (IC50) is more than 200 µM. `COC(=O)c1ccccc1C#CCCCOS(C)(=O)=O`: the EC50 was more than 200 µM and the IC50 was more than 200 µM. As for `CC1(C)CC(=O)/C(=C/C2CCNC2=S)C(=O)N1` (configuration not stated), the EC50 was more than 501 µM and the IC50 is more than 501 µM. Turning to `O=C(NNCC(F)(F)F)c1ccncc1`, the EC50 was more than 200 µM and the IC50 turned out to be 30.2 µM. Take `O=C(O)CN1CCN2CCCCCCCCN(CC1)CCN(CC(=O)O)CC2`: the EC50 was more than 200 µM and the IC50 worked out at 13.2 µM.

Values taken from PubChem BioAssay AID179 (DTP/NCI, 2004).
